Reference: patent publication US8476276B2, “Pharmaceutical compositions based on kinin B2 receptor antagonists and corticosteroids, and their use” (Istituto Luso Farmaco d'Italia S.p.A., priority 2008, dated 2013)

Experiments:
[1] = test system: carrageenan-induced joint oedema; experiment: Carrageenan-induced knee arthritis, joint oedema (knee joint diameter); format: in vivo, rat; details: for reduction of carrageenan-induced knee swelling: hydrocortisone experiment, 100 μg i.a. 30 min before carrageenan
Method: (§1) The activity of MEN16132, icatibant and cortisones was measured in an experimental model of arthritis induced by intra-articular injection of carrageenan which causes a strong inflammatory effect. […] The weight imbalance on the two weight-bearing paws, evaluated in a non-invasive way with the incapacitance test, measures the pain resulting from the joint inflammation. The diameter of the knee joint was also measured to measure the oedema.

[2] = test system: carrageenan-induced joint pain; experiment: Carrageenan-induced knee arthritis, joint pain (incapacitance test); format: in vivo, rat
Method: as §1

[3] = test system: cell infiltration in the airways caused by LPS; experiment: LPS-induced airway inflammation, leucocytes in bronchoalveolar washing; format: in vivo, guinea pig; details: for reduction of the number of inflammatory cells in the airways after LPS: aerosol of a 1 mg/ml solution for 15 min
[4] = test system: human airway muscle cells; experiment: LPS-induced PGE2 release in cultures of human airway muscle cells; format: cell-based; details: LPS 1 μg/ml for 24 hours
Method: Similar findings were obtained with an in vitro model, in cultures of human airway muscle cells stimulated for 24 hours with 1 μg/ml LPS, where an approximately 16-fold increase in the production of PGE2 was observed compared with the control.

[5] = test system: symptomatic OA of the knee; details: cited from earlier work
[6] = 100 μg/25 μl i.a. 30 min before carrageenan, maximum effect 6 hours
[7] = 100 μg i.a. 30 min before carrageenan, 6 hours after the irritant

Row | Compound | reduction of carrageenan-induced oedema [1, 6] [%] | reduction of carrageenan-induced knee swelling [1] [%] | reduction of joint pain [2, 7] [%] | reduction of the number of inflammatory cells in the airways after LPS [3] [%] | reduction of LPS-induced release of PGE2 ([4]; 100 nM) [%] | reduction of carrageenan-induced oedema ([1]; dexamethasone 10 μg i.a.) | reduction of joint pain ([2]; 10 μg i.a.) [%] | reduction of cell infiltration in the airways after LPS ([3]; aerosol of a 0.03 mg/ml solution for 15 min) [%] | reduction of LPS-induced release of PGE2 ([4]; 1 μM) [%] | duration of analgesic response after the treatment ([5]; intra-articular infiltration, 3×500 μg injections one week apart) | intensity of pain in the knee ([5]; phase II, single intra-articular administration 90 μg/1 ml, versus placebo)
1 | Cc1cc(C)c2cccc(OCc3c(Cl)ccc(S(=O)(=O)NC4(C(=O)N5CCN(C(=O)[C@@H](N)CCC[N+](C)(C)C)CC5)CCOCC4)c3Cl)c2n1 [MEN16132, (4-(S)-amino-5-(4-{4-[2,4-dichloro-3-(2,4-dimethyl-quinolin-8-yloxymethyl)-benzenesulphonylamino]-tetrahydro-pyran-4-carbonyl}-piperazin-1-yl)-5-oxo-pentyl]-trimethyl-ammonium] | 45±3 | 42±3 | 38±4 | 6 | 39 |  |  |  |  |  | 
2 | C[C@@H]1C[C@H]2[C@@H]3CCC4=CC(=O)C=C[C@]4(C)[C@@]3(F)[C@@H](O)C[C@]2(C)[C@@]1(O)C(=O)CO [dexamethasone, Dexamethasone] | 57±3 |  | 44±3 |  |  | inactive | 14±4 | 8 | 45 |  | 
3 | C[C@]12CCC(=O)C=C1CC[C@@H]1[C@@H]2[C@@H](O)C[C@@]2(C)[C@H]1CC[C@]2(O)C(=O)CO [hydrocortisone, Hydrocortisone] |  | −4±3 |  |  |  |  |  |  |  |  | 
4 | NC(N)=NCCC[C@@H](N)C(=O)N[C@@H](CCCN=C(N)N)C(=O)N1CCC[C@H]1C(=O)N1C[C@H](O)C[C@H]1C(=O)NCC(=O)N[C@@H](Cc1cccs1)C(=O)N[C@@H](CO)C(=O)N1Cc2ccccc2C[C@@H]1C(=O)N1[C@H](C(=O)N[C@@H](CCCN=C(N)N)C(=O)O)C[C@@H]2CCCC[C@@H]21 [icatibant, H-D-Arg-Arg-Pro-Hyp-Gly-Thi-Ser-D-Tic-Oic-Arg-OH] | 48±5 |  |  | 5 | 30 |  |  |  |  | up to 3 months | reduced the intensity of pain in the knee to a greater extent than the placebo
